Where two headings read alike, the source gives them in different places.
Key:
strain KB3ind = assay type: cell-based, E. coli; for Induction Assay response: key: ±: Possible positive; +: Weak positive; ++: Stronger positive; -: Negative
Experimental: (§1) To detect tetracyclines, a plate assay is developed that is similar to one described previously (11). Cells are grown in Luria Broth (adjusted with NaOH to pH 7.5) with 25 μg/ml of kanamycin to a cell density of 0.5 absorbance units (600 nm). A 25 ml sample of the culture is harvested by centrifugation and resuspended in 1 ml of broth. The cells are mixed with 25 ml of soft agar (1%, wt/vol) and poured onto 100 ml of LB (pH 7.5)+ kanamycin, within a 22 cm^2 NUNC plate (Corning). Samples are applied by spotting from 2 to 15 μl, or by applying a disc impregnated with a compound, and the plate is incubated for 3-4 hours at 37° C. The plates are overlaid with a solution containing 13.5 mg of 6-bromo-2-naphthyl-β-D-galactopyranoside side and 86.5 mg of fast blue RR (Sigma) dissolved in 2 ml of dimethylsulfoxide, to which 25 ml of soft agar is added. β-Galactosidase is detected by the presence of a purple spot.

[1] = tested on: tetracycline efflux pump (strain KB4 or KB5); experiment: Inhibition Assay, plate assay (agar with 5 ng/ml of tetracycline); note: key: ±: Possible positive; +: Weak positive; ++: Stronger positive; -: Negative; assay type: cell-based, E. coli; details: disc on assay plate
Experimental: as §1
Two assays are developed for detecting inhibitors of the tetA gene product (using strain KB5), or the tetK gene product (using strain KB4). In the Inhibition Assay, cells of strain KB4 or KB5 are treated as described in the tetracycline screen above, except that the agar medium contains 5 ng/ml of tetracycline. Alternatively a Liquid Assay is also developed. Cells are first grown in LB (pH 7.5). Then cells are shifted to medium containing 5 ng/ml of tetracycline, and tetracycline-containing samples are added to aliquots. Cells are then incubated and assayed as described for the Tetracycline Assay. […] However, the intracellular concentration is reduced in tetracycline resistant strains due to the action of the efflux pump, so more tetracycline would be required in the medium to accumulate sufficient tetracycline inside the cell to induce. The Inhibition Assay is designed to detect compounds that cause β-galactosidase induction in the presence of sub-inducing levels of tetracycline for a resistant strain.

Compound	response in the Tetracycline Assay (β-galactosidase induction) (strain KB3ind; strain KB3ind, plate assay (plate or liquid assay))	Induction Assay response (strain KB3ind; disc on assay plate)	Inhibition Assay response [1]	Induction Assay response (strain KB3ind)
CN(C)C1C(=O)C(C(N)=O)=C(O)C2(O)C(=O)C3=C(O)c4c(O)ccc(Cl)c4C(O)C3CC12 (stereo not drawn) [6-dimethyl chlortetracycline]	capable of detecting			
NCC[C@H](O)C(=O)N[C@@H]1C[C@H](N)[C@@H](O[C@H]2O[C@H](CN)[C@@H](O)[C@H](O)[C@H]2O)[C@H](O)[C@H]1O[C@H]1O[C@H](CO)[C@@H](O)[C@H](N)[C@H]1O [Amikacin]		-	-	
CC1(C)S[C@@H]2[C@H](NC(=O)[C@H](N)c3ccccc3)C(=O)N2[C@H]1C(=O)O [Ampicillin]		+		
CC1(C)S[C@@H]2[C@H](NC(=O)[C@H](NC(=O)N3CCNC3=O)c3ccccc3)C(=O)N2[C@H]1C(=O)O [Azlocillin]			-	
C[C@H]1[C@H](NC(=O)/C(=N\OC(C)(C)C(=O)O)c2csc(N)n2)C(=O)N1S(=O)(=O)O [Aztreonam]		-	-	
CC1(C)S[C@@H]2[C@H](NC(=O)C(C(=O)O)c3ccccc3)C(=O)N2[C@H]1C(=O)O (stereo partly drawn) [Carbenicillin]		+	+	
Cn1nnnc1SCC1=C(C(=O)O)N2C(=O)[C@@H](NC(=O)[C@H](O)c3ccccc3)[C@H]2SC1 [Cefamandole]		±	+	
CO/N=C(\C(=O)N[C@@H]1C(=O)N2C(C(=O)O)=C(COC(C)=O)CS[C@H]12)c1csc(N)n1 [Cefotaxime]		+		
CO[C@@]1(NC(=O)Cc2cccs2)C(=O)N2C(C(=O)O)=C(COC(N)=O)CS[C@@H]21 [Cefoxitin]			+	
NC(=O)c1cc[n+](CC2=C(C(=O)O)N3C(=O)[C@@H](NC(=O)[C@@H](c4ccccc4)S(=O)(=O)[O-])[C@H]3SC2)cc1 [Cefsulodin]			±	
CC(C)(O/N=C(\C(=O)N[C@@H]1C(=O)N2C(C(=O)[O-])=C(C[n+]3ccccc3)CS[C@H]12)c1csc(N)n1)C(=O)O [Ceftazidine]		++	++	
O=C(Cc1cccs1)N[C@@H]1C(=O)N2C(C(=O)[O-])=C(C[n+]3ccccc3)CS[C@H]12 [Cephaleridine]			+	
CC(=O)OCC1=C(C(=O)O)N2C(=O)[C@@H](NC(=O)Cc3cccs3)[C@H]2SC1 [Cephalethin]		+	+	
O=C(N[C@H](CO)[C@H](O)c1ccc([N+](=O)[O-])cc1)C(Cl)Cl [Chloremphenicol]		-	-	
CCn1nc(C(=O)O)c(=O)c2cc3c(cc21)OCO3 [Cinoxacin]		±	-	
Cc1onc(-c2ccccc2Cl)c1C(=O)N[C@@H]1C(=O)N2[C@@H]1SC(C)(C)[C@@H]2C(=O)O [Cloxacillin]			-	
CC[C@H]1OC(=O)[C@H](C)[C@@H](O[C@H]2C[C@@](C)(OC)[C@@H](O)[C@H](C)O2)[C@H](C)[C@@H](O[C@@H]2O[C@H](C)C[C@H](N(C)C)[C@H]2O)[C@](C)(O)C[C@@H](C)C(=O)[C@H](C)[C@@H](O)[C@]1(C)O [Erythromycin]		-	-	
CC[n+]1c(-c2ccccc2)c2cc(N)ccc2c2ccc(N)cc21 [Ethidium bromide]			-	
C[C@@H](O)[C@H]1C(=O)N2C(C(=O)O)=C(SCCN=CN)C[C@H]12 [Imipenem]			++	++
NC[C@H]1O[C@H](O[C@H]2[C@H](O)[C@@H](O[C@H]3O[C@H](CO)[C@@H](O)[C@H](N)[C@H]3O)[C@H](N)C[C@@H]2N)[C@H](O)[C@@H](O)[C@@H]1O [Kanamycin]			-	-
COc1cccc(OC)c1C(=O)N[C@@H]1C(=O)N2[C@@H]1SC(C)(C)[C@@H]2C(=O)O [Methicillin]		-	-	
CO[C@@]1(NC(=O)C(C(=O)O)c2ccc(O)cc2)C(=O)N2C(C(=O)O)=C(CSc3nnnn3C)CO[C@@H]21 (stereo partly drawn) [Moxalactam]		-	+	

Compound	response in the Tetracycline Assay (β-galactosidase induction) (strain KB3ind; strain KB3ind, plate assay (plate or liquid assay))	Induction Assay response (strain KB3ind; disc on assay plate)	Inhibition Assay response [1]	Induction Assay response (strain KB3ind)
CCOc1ccc2ccccc2c1C(=O)N[C@@H]1C(=O)N2[C@@H]1SC(C)(C)[C@@H]2C(=O)O [Nafcillin]		-	-	
CCn1cc(C(=O)O)c(=O)c2ccc(C)nc21 [Nalidixic Acid]		-	-	
CCn1cc(C(=O)O)c(=O)c2cc(F)c(N3CCNCC3)cc21 [Norfloxacin]		-	-	
CO[C@@H]1[C@@H](OC(N)=O)[C@@H](O)[C@H](Oc2ccc3c(O)c(NC(=O)c4ccc(O)c(CC=C(C)C)c4)c(=O)oc3c2C)OC1(C)C [Novobiocin]		-	-	
C[C@@H]1[C@H](O)[C@@H](C)/C=C/C=C/CC/C=C/C=C/C=C/C=C/C(O[C@H]2O[C@H](C)[C@@H](O)[C@H](N)[C@@H]2O)CC2O[C@](O)(CC(O)C(O)CCC(O)CC(O)CC(O)CC(=O)O[C@H]1C)CC(O)C2C(=O)O (stereo partly drawn) [Nystatin]		++	-	
Cc1onc(-c2ccccc2)c1C(=O)N[C@@H]1C(=O)N2[C@@H]1SC(C)(C)[C@@H]2C(=O)O [Oxacillin]		-	-	
CC1(C)S[C@@H]2[C@H](NC(=O)Cc3ccccc3)C(=O)N2[C@H]1C(=O)O [Penicillin G]		-	-	
CCN1CCN(C(=O)N[C@@H](C(=O)N[C@@H]2C(=O)N3[C@@H]2SC(C)(C)[C@@H]3C(=O)O)c2ccccc2)C(=O)C1=O [Piperacillin]		±	-	
CO[C@H]1/C=C/O[C@@]2(C)Oc3c(C)c(O)c4c(O)c(c(/C=N/N5CCN(C)CC5)c(O)c4c3C2=O)NC(=O)/C(C)=C\C=C\[C@H](C)[C@H](O)[C@@H](C)[C@@H](O)[C@@H](C)[C@H](OC(C)=O)[C@@H]1C [Rifampin]			-	-
[H]/N=C(/N)N[C@H]1[C@H](O)[C@@H](O)[C@H](O[C@@H]2O[C@@H](C)[C@](O)(C=O)[C@H]2O[C@@H]2O[C@@H](CO)[C@H](O)[C@@H](O)[C@@H]2NC)[C@@H](N/C(N)=N\[H])[C@@H]1O [Streptomycin]		-	-	
Nc1ccc(S(=O)(=O)Nc2ccc(Cl)nn2)cc1 [Sulfachloropyridazine]		-	-	
Nc1ccc(S(=O)(=O)Nc2ncccn2)cc1 [Sulfadiazine]			-	-
Cc1nnc(NS(=O)(=O)c2ccc(N)cc2)s1 [Sulfamethizole]		-	-	
Nc1ccc(S(=O)(=O)Nc2nccs2)cc1 [Sulfathiazole]		-	-	
CC1(C)S[C@@H]2[C@H](NC(=O)[C@H](C(=O)O)c3ccsc3)C(=O)N2[C@H]1C(=O)O [Ticarcillin]		+	+	
NC[C@H]1O[C@H](O[C@H]2[C@H](O)[C@@H](O[C@H]3O[C@H](CO)[C@@H](O)[C@H](N)[C@H]3O)[C@H](N)C[C@@H]2N)[C@H](N)C[C@@H]1O [Tobramycin]		-	-	
CN[C@H](CC(C)C)C(=O)N[C@H]1C(=O)N[C@@H](CC(N)=O)C(=O)N[C@H]2C(=O)N[C@H]3C(=O)N[C@H](C(=O)N[C@H](C(=O)O)c4cc(O)cc(O)c4-c4cc3ccc4O)[C@H](O)c3ccc(c(Cl)c3)Oc3cc2cc(c3O[C@@H]2O[C@H](CO)[C@@H](O)[C@H](O)[C@H]2O[C@H]2C[C@](C)(N)[C@H](O)[C@H](C)O2)Oc2ccc(cc2Cl)[C@H]1O [Vancomycin]			-	±
Bacitracin		-	-	
Colistin		-	-	
Gentamicin		-	-	
Neomycin		-		
Polymyxin B		-	-	

— US5789188A, “Tetracycline-efflux pump inhibitor screening methods” (priority 1996, dated 1998)
